Measurements reported in patent publication US6444617B1, “Fused-heterocycle dicarboxylic acid diamide derivatives or salts thereof, herbicide and usage thereof” (Nihon Nohyaku Co., Ltd., priority 1998, dated 2002).

How the values were obtained:
Format in all cases: in vivo
[1] = tested on: barnyard grass (Echinochloa crus-galli Beauv.); experiment: Test Example 1: herbicidal effect on paddy field weeds before emergence; details: Dosage 5 kg/ha
Procedure: (§1) Test for Herbicidal Effect on Paddy Field Weeds Before Emergence Soil was filled into 1/10000 are pots and brought into a state of paddy field, in which seeds of barnyard grass (Echinochloa crus-galli Beauv.) and bulrush (Scirpus juncoides Roxb.) were made to be before germination. The soil in the pots were treated with a solution containing a predetermined dosage of a chemical agent comprising a compound of the present invention listed in Tables 1 to 14. Twenty one days after the treatment, the herbicidal effect was investigated, the result was compared with that in untreated plot to calculate the weed-controlling rate, and the herbicidal effect was judged according to the following criterion: […]

[2] = tested on: bulrush (Scirpus juncoides Roxb.); experiment: as above; details: Dosage 5 kg/ha
Procedure: as §1

[3] = tested on: soybean plant; experiment: Test Example 4: phytotoxicity to upland crop plants, treatment after emergence; details: dosage 5 kg/ha, sprayed after emergence, judged 14 days after treatment
Source text: (§2) Herbicidal Effect on Upland Weeds After Emergence Polyethylene-made vats having a size of 10 cm (length)×20 cm (width)×5 cm (height) were filled with soil, sown with seeds of the following noxious upland weeds and with seeds of soybean plant and wheat as upland crop plants, and then covered with soil. The plants were made to grow up until they reached the leaf-stages mentioned below, after which an agent comprising a prescribed concentration of a compound of the present invention (listed in Tables 1 to 14) as active ingredient was sprayed. Fourteen days after the treatment, the herbicidal effect was investigated, from which weed-killing rate was calculated in the same manner as in Test Example 1 and the results were judged. […] Sample weeds, their leaf stages, and leaf stages of soybean plant and wheat were as follows: [table]

[4] = tested on: wheat; experiment: as above; details: dosage 5 kg/ha, sprayed after emergence, judged 14 days after treatment
Source text: as §2

[5] = tested on: velvetleaf (Abutilon theophtasti L.), At; experiment: Test Example 4: herbicidal effect on upland weeds after emergence; details: dosage 5 kg/ha; sprayed after emergence; judged 14 days after treatment
Source text: as §2

[6] = tested on: barnyard grass (Echinochloa crus-galli Beauv.), Ec; experiment: as above; details: dosage 5 kg/ha; sprayed after emergence; judged 14 days after treatment
Source text: as §2

[7] = tested on: cleavers (Galium aparine L.), Ga; experiment: as above; details: dosage 5 kg/ha; sprayed after emergence; judged 14 days after treatment
Source text: as §2

[8] = tested on: bird's eye speedwell (Veronica persica Poir.), Vp; experiment: as above; details: dosage 5 kg/ha; sprayed after emergence; judged 14 days after treatment
Source text: as §2

[9] = tested on: forxtail grass (Alopecurus aequalis var. amurensis Ohwi), Am; experiment: as above; details: dosage 5 kg/ha; sprayed after emergence; judged 14 days after treatment
Source text: as §2

[10] = tested on: cocklebur (Xanthium strumarium L.), Xs; experiment: as above; details: dosage 5 kg/ha; sprayed after emergence; judged 14 days after treatment
Source text: as §2

[11] = tested on: wheat (Wh); experiment: Test Example 3: phytotoxicity to upland crop plants, treatment before emergence; details: dosage 5 kg/ha
Procedure: (§3) Herbicidal Effect on Upland Weeds Before Emergence […] Then, a liquid preparation of an agent comprising a prescribed concentration of a compound of the present invention (the compounds listed in Tables 1-14) as active ingredient was sprayed. Fourteen days after the treatment, the herbicidal effect was investigated, from which weed-killing rate was calculated in the same manner as in Test Example 1, and the herbicidal effect was judged. At the same time, phytotoxicity to soybean plant and wheat was investigated and judged according to the criterion mentioned below.

[12] = tested on: soybean plant (So); experiment: as above; details: dosage 5 kg/ha
Procedure: as §3

[13] = tested on: barnyard grass (Echinochloa crus-galli Beauv.); experiment: Test Example 2: herbicidal effect on paddy field weeds after emergence; details: Dosage 5 kg/ha; one-leaved stage; 21 days after treatment
Procedure: (§4) Test for Herbicidal Effect on Paddy Field Weeds After Emergence. Soil was filled into 1/10000 are pots and brought into a state of paddy field, in which seeds of barnyard grass (Echinochloa crus-galli Beauv.), bulrush (Scirpus juncoides Roxb.) and monochoria (Monochoria vaginalis Presl) were made to reach one-leaved stage. The soil in the pots were treated with a solution containing a predetermined dosage of a chemical agent comprising a compound of the present invention listed in Tables 1 to 14. Twenty one days after the treatment, the herbicidal effect was investigated and the result was compared with that in untreated plot to calculate the weed-controlling rate, and the herbicidal effect was judged according to the same criterion as in Test Example 1.

[14] = tested on: monochoria (Monochoria vaginalis Presl); experiment: as above; details: Dosage 5 kg/ha; one-leaved stage; 21 days after treatment
Procedure: as §4

[15] = tested on: bulrush (Scirpus juncoides Roxb.); experiment: as above; details: Dosage 5 kg/ha; one-leaved stage; 21 days after treatment
Procedure: as §4

[16] = tested on: velvetleaf (Abutilon theophtasti L.), At; experiment: Test Example 3: herbicidal effect on upland weeds before emergence; details: dosage 5 kg/ha
Procedure: as §3, with “judged.” for “judged. At the same time, phytotoxicity to soybean plant and wheat was investigated and judged according to the criterion mentioned below.”

[17] = tested on: barnyard grass (Echinochloa crus-galli Beauv.), Ec; experiment: as above; details: dosage 5 kg/ha
Procedure: as §3, with “judged.” for “judged. At the same time, phytotoxicity to soybean plant and wheat was investigated and judged according to the criterion mentioned below.”

[18] = tested on: cleavers (Galium aparine L.), Ga; experiment: as above; details: dosage 5 kg/ha
Procedure: as §3, with “judged.” for “judged. At the same time, phytotoxicity to soybean plant and wheat was investigated and judged according to the criterion mentioned below.”

[19] = tested on: bird's eye speedwell (Veronica persica Poir.), Vp; experiment: as above; details: dosage 5 kg/ha
Procedure: as §3, with “judged.” for “judged. At the same time, phytotoxicity to soybean plant and wheat was investigated and judged according to the criterion mentioned below.”

[20] = tested on: forxtail grass (Alopecurus aequalis var. amurensis Ohwi), Am; experiment: as above; details: foxtail grass, dosage 5 kg/ha
Procedure: as §3, with “judged.” for “judged. At the same time, phytotoxicity to soybean plant and wheat was investigated and judged according to the criterion mentioned below.”

[21] = tested on: cocklebur (Xanthium strumarium L.), Xs; experiment: as above; details: dosage 5 kg/ha
Procedure: as §3, with “judged.” for “judged. At the same time, phytotoxicity to soybean plant and wheat was investigated and judged according to the criterion mentioned below.”

Compound: CCCNC(=O)c1nc2c(cc1C(=O)Nc1c(CC)ccc(Cl)c1CC)CSCC2 [compound 558]
- Pre-emergence treatment Barnyard grass (herbicidal effect) [1]: 5 (Weed-killing rate is 100%.)
- Pre-emergence treatment Bulrush (herbicidal effect) [2]: 5 (Weed-killing rate is 100%.)
- Phytotoxicity So [3]: 5 (Crop-killing rate is 100%.)
- Phytotoxicity Wh [4]: 5 (Crop-killing rate is 100%.)
- Herbicidal effect At [5]: 5 (Weed-killing rate is 100%.)
- Herbicidal effect Ec [6]: 5 (Weed-killing rate is 100%.)
- Herbicidal effect Ga [7]: 5 (Weed-killing rate is 100%.)
- Herbicidal effect Vp [8]: 5 (Weed-killing rate is 100%.)
- Herbicidal effect Am [9]: 5 (Weed-killing rate is 100%.)
- Herbicidal effect Xs [10]: 5 (Weed-killing rate is 100%.)
- Phytotoxicity Wh [11]: 5 (Crop-killing rate is 100%.)
- Phytotoxicity So [12]: 5 (Crop-killing rate is 100%.)
- Post-emergence treatment Barnyard grass (herbicidal effect) [13]: 5 (Weed-killing rate is 100%.)
- Post-emergence treatment Monochoria (herbicidal effect) [14]: 5 (Weed-killing rate is 100%.)
- Post-emergence treatment Bulrush (herbicidal effect) [15]: 5 (Weed-killing rate is 100%.)
- Herbicidal effect At [16]: 5 (Weed-killing rate is 100%.)
- Herbicidal effect Ec [17]: 5 (Weed-killing rate is 100%.)
- Herbicidal effect Ga [18]: 5 (Weed-killing rate is 100%.)
- Herbicidal effect Vp [19]: 5 (Weed-killing rate is 100%.)
- Herbicidal effect Am [20]: 5 (Weed-killing rate is 100%.)
- Herbicidal effect Xs [21]: 5 (Weed-killing rate is 100%.)

Compound: Cc1c(Cl)cccc1NC(=O)c1cc2ccoc2nc1C(=O)NC1CCCC1 [compound 796]
- Pre-emergence treatment Barnyard grass (herbicidal effect) [1]: 5 (Weed-killing rate is 100%.)
- Pre-emergence treatment Bulrush (herbicidal effect) [2]: 5 (Weed-killing rate is 100%.)
- Phytotoxicity So [3]: 4 (Crop-killing rate is 90-99%.)
- Phytotoxicity Wh [4]: 4 (Crop-killing rate is 90-99%.)
- Herbicidal effect At [5]: 5 (Weed-killing rate is 100%.)
- Herbicidal effect Ec [6]: 5 (Weed-killing rate is 100%.)
- Herbicidal effect Ga [7]: 4 (Weed-killing rate is 90-99%.)
- Herbicidal effect Vp [8]: 5 (Weed-killing rate is 100%.)
- Herbicidal effect Am [9]: 5 (Weed-killing rate is 100%.)
- Herbicidal effect Xs [10]: 4 (Weed-killing rate is 90-99%.)
- Phytotoxicity Wh [11]: 5 (Crop-killing rate is 100%.)
- Phytotoxicity So [12]: 4 (Crop-killing rate is 90-99%.)
- Post-emergence treatment Barnyard grass (herbicidal effect) [13]: 5 (Weed-killing rate is 100%.)
- Post-emergence treatment Monochoria (herbicidal effect) [14]: 5 (Weed-killing rate is 100%.)
- Post-emergence treatment Bulrush (herbicidal effect) [15]: 5 (Weed-killing rate is 100%.)
- Herbicidal effect At [16]: 5 (Weed-killing rate is 100%.)
- Herbicidal effect Ec [17]: 5 (Weed-killing rate is 100%.)
- Herbicidal effect Ga [18]: 5 (Weed-killing rate is 100%.)
- Herbicidal effect Vp [19]: 5 (Weed-killing rate is 100%.)
- Herbicidal effect Am [20]: 5 (Weed-killing rate is 100%.)
- Herbicidal effect Xs [21]: 4 (Weed-killing rate is 90-99%.)

Compound: CCCNC(=O)c1nc2c(cc1C(=O)Nc1c(CC)ccc(Cl)c1CC)c(C)nn2C [compound 1112]
- Pre-emergence treatment Barnyard grass (herbicidal effect) [1]: 5 (Weed-killing rate is 100%.)
- Pre-emergence treatment Bulrush (herbicidal effect) [2]: 5 (Weed-killing rate is 100%.)
- Phytotoxicity So [3]: 5 (Crop-killing rate is 100%.)
- Phytotoxicity Wh [4]: 5 (Crop-killing rate is 100%.)
- Herbicidal effect At [5]: 5 (Weed-killing rate is 100%.)
- Herbicidal effect Ec [6]: 5 (Weed-killing rate is 100%.)
- Herbicidal effect Ga [7]: 5 (Weed-killing rate is 100%.)
- Herbicidal effect Vp [8]: 5 (Weed-killing rate is 100%.)
- Herbicidal effect Am [9]: 5 (Weed-killing rate is 100%.)
- Herbicidal effect Xs [10]: 5 (Weed-killing rate is 100%.)
- Phytotoxicity Wh [11]: 5 (Crop-killing rate is 100%.)
- Phytotoxicity So [12]: 5 (Crop-killing rate is 100%.)
- Post-emergence treatment Barnyard grass (herbicidal effect) [13]: 5 (Weed-killing rate is 100%.)
- Post-emergence treatment Monochoria (herbicidal effect) [14]: 5 (Weed-killing rate is 100%.)
- Post-emergence treatment Bulrush (herbicidal effect) [15]: 5 (Weed-killing rate is 100%.)
- Herbicidal effect At [16]: 5 (Weed-killing rate is 100%.)
- Herbicidal effect Ec [17]: 5 (Weed-killing rate is 100%.)
- Herbicidal effect Ga [18]: 5 (Weed-killing rate is 100%.)
- Herbicidal effect Vp [19]: 5 (Weed-killing rate is 100%.)
- Herbicidal effect Am [20]: 5 (Weed-killing rate is 100%.)
- Herbicidal effect Xs [21]: 5 (Weed-killing rate is 100%.)

Compound: CCCNC(=O)c1nc2c(cc1C(=O)Nc1c(CC)ccc(Cl)c1CC)CCOC2 [compound 438]
- Pre-emergence treatment Barnyard grass (herbicidal effect) [1]: 5 (Weed-killing rate is 100%.)
- Pre-emergence treatment Bulrush (herbicidal effect) [2]: 5 (Weed-killing rate is 100%.)
- Phytotoxicity So [3]: 4 (Crop-killing rate is 90-99%.)
- Phytotoxicity Wh [4]: 5 (Crop-killing rate is 100%.)
- Herbicidal effect At [5]: 5 (Weed-killing rate is 100%.)
- Herbicidal effect Ec [6]: 5 (Weed-killing rate is 100%.)
- Herbicidal effect Ga [7]: 5 (Weed-killing rate is 100%.)
- Herbicidal effect Vp [8]: 5 (Weed-killing rate is 100%.)
- Herbicidal effect Am [9]: 5 (Weed-killing rate is 100%.)
- Herbicidal effect Xs [10]: 5 (Weed-killing rate is 100%.)
- Phytotoxicity Wh [11]: 5 (Crop-killing rate is 100%.)
- Phytotoxicity So [12]: 5 (Crop-killing rate is 100%.)
- Post-emergence treatment Barnyard grass (herbicidal effect) [13]: 5 (Weed-killing rate is 100%.)
- Post-emergence treatment Monochoria (herbicidal effect) [14]: 5 (Weed-killing rate is 100%.)
- Post-emergence treatment Bulrush (herbicidal effect) [15]: 5 (Weed-killing rate is 100%.)
- Herbicidal effect At [16]: 5 (Weed-killing rate is 100%.)
- Herbicidal effect Ec [17]: 5 (Weed-killing rate is 100%.)
- Herbicidal effect Ga [18]: 5 (Weed-killing rate is 100%.)
- Herbicidal effect Vp [19]: 5 (Weed-killing rate is 100%.)
- Herbicidal effect Am [20]: 5 (Weed-killing rate is 100%.)
- Herbicidal effect Xs [21]: 5 (Weed-killing rate is 100%.)

Compound: CCc1ccc(Cl)c(CC)c1NC(=O)c1cc2cc3c(cc2nc1C(=O)NC1CCCC1)OCO3 [compound 343]
- Pre-emergence treatment Barnyard grass (herbicidal effect) [1]: 5 (Weed-killing rate is 100%.)
- Pre-emergence treatment Bulrush (herbicidal effect) [2]: 3 (Weed-killing rate is 70-89%.)
- Phytotoxicity So [3]: 0 (Crop-killing rate is 0-20% (No Phytotoxicity).)
- Phytotoxicity Wh [4]: 0 (Crop-killing rate is 0-20% (No Phytotoxicity).)
- Herbicidal effect At [5]: 3 (Weed-killing rate is 70-89%.)
- Herbicidal effect Ec [6]: 4 (Weed-killing rate is 90-99%.)
- Herbicidal effect Ga [7]: 2 (Weed-killing rate is 40-69%.)
- Herbicidal effect Vp [8]: 3 (Weed-killing rate is 70-89%.)
- Herbicidal effect Am [9]: 2 (Weed-killing rate is 40-69%.)
- Herbicidal effect Xs [10]: 2 (Weed-killing rate is 40-69%.)
- Phytotoxicity Wh [11]: 0 (Crop-killing rate is 0-20% (No Phytotoxicity).)
- Phytotoxicity So [12]: 0 (Crop-killing rate is 0-20% (No Phytotoxicity).)
- Post-emergence treatment Barnyard grass (herbicidal effect) [13]: 3 (Weed-killing rate is 70-89%.)
- Post-emergence treatment Monochoria (herbicidal effect) [14]: 5 (Weed-killing rate is 100%.)
- Post-emergence treatment Bulrush (herbicidal effect) [15]: 3 (Weed-killing rate is 70-89%.)
- Herbicidal effect At [16]: 3 (Weed-killing rate is 70-89%.)
- Herbicidal effect Ec [17]: 4 (Weed-killing rate is 90-99%.)
- Herbicidal effect Ga [18]: 3 (Weed-killing rate is 70-89%.)
- Herbicidal effect Vp [19]: 4 (Weed-killing rate is 90-99%.)
- Herbicidal effect Am [20]: 3 (Weed-killing rate is 70-89%.)
- Herbicidal effect Xs [21]: 2 (Weed-killing rate is 40-69%.)
